“Also recorded” adds a separate entry of the source.
These compounds were tested against protein kinase (assay: HTS ATP-utilizing enzyme assay, off-chip mobility-shift format (Caliper HTS 250)). Conditions: kinase(s) for which the compound exhibits protein kinase inhibitory activity; test compound 10 μM; active = greater than three-sigma from the mean activity of inactive compounds.
Format: biochemical, human
In short: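 Kinase reactions ran 2.5 h at 20 to 22 °C with test compound at 10 μM, in a HEPES pH 7.5 master buffer containing Triton X-100 and BSA. Peptide substrate and phosphorylated product separated by mobility shift; inhibition normalized to DMSO (0%) and EDTA (100%) controls, with three-sigma thresholds for hits.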

Kinase	SMILES
CHEK2 and AURORA-A and PKA	O=C(CSc1nnc(-c2ccncc2)[nH]1)c1c[nH]c2ccccc12 [1-(1H-indol-3-yl)-2-(5-(pyridin-4-yl)-4H-1,2,4-triazol-3-ylthio)ethanone]
FYN and PDGFRR-α and FLT-3	O=C(CSc1nnc(-c2ccco2)[nH]1)c1ccc(O)c(O)c1 [1-(3,4-dihydroxyphenyl)-2-(5-(furan-2-yl)-4H-1,2,4-triazol-3-ylthio)ethanone]
GSK-3-α; also recorded: GSK-3-β	Nc1nncn1C(=O)Cc1ccc(Cl)cc1 [1-(3-amino-4H-1,2,4-triazol-4-yl)-2-(4-chlorophenyl)ethanone]
INSR	COc1ccc(-c2nnc(SCC(C)=O)n2-c2ccccc2)cc1 [1-(5-(4-methoxyphenyl)-4-phenyl-4H-1,2,4-triazol-3-ylthio)propan-2-one]
AURORA-A	O=C(CSc1nnc(-c2cccnc2)[nH]1)c1ccccc1 [1-phenyl-2-(5-(pyridin-3-yl)-4H-1,2,4-triazol-3-ylthio)ethanone]
FLT-3; also recorded: AURORA-A	Cc1cccc(-c2nnc(SCC(=O)c3ccccc3)[nH]2)c1 [1-phenyl-2-(5-m-tolyl-4H-1,2,4-triazol-3-ylthio)ethanone]
DAPK1	Cc1ccc(-c2nnc(SCC(=O)O)n2-c2ccc(C)cc2)cc1 [2-(4,5-dip-tolyl-4H-1,2,4-triazol-3-ylthio)acetic acid]
DAPK1	Cc1ccc(-c2nnc(SC(C)C(=O)O)n2-c2ccc(C)cc2)cc1 (stereo not shown) [2-(4,5-dip-tolyl-4H-1,2,4-triazol-3-ylthio)propanoic acid]
CHEK2	COc1ccccc1-n1c(SCC(=O)O)nnc1-c1ccccc1C [2-(4-(2-methoxyphenyl)-5-o-tolyl-4H-1,2,4-triazol-3-ylthio)acetic acid]
AURORA-A	O=C(O)CSc1nnc(-c2cccnc2)n1-c1ccc(F)cc1 [2-(4-(4-fluorophenyl)-5-(pyridin-3-yl)-4H-1,2,4-triazol-3-ylthio)acetic acid]
AURORA-A	COc1ccc(-n2c(SC(C)C(=O)O)nnc2-c2ccccc2)cc1 (stereo not shown) [2-(4-(4-methoxyphenyl)-5-phenyl-4H-1,2,4-triazol-3-ylthio)propanoic acid]
GSK3-α	O=C(CSc1nncn1-c1ccccn1)Nc1nccs1 [2-(4-(pyridin-2-yl)-4H-1,2,4-triazol-3-ylthio)-N-(thiazol-2-yl)acetamide]
GSK3-β	C=CCn1c(SCC(=O)O)nnc1-c1ccc([N+](=O)[O-])cc1 [2-(4-allyl-5-(4-nitrophenyl)-4H-1,2,4-triazol-3-ylthio)acetic acid]
DYRK2	COc1cc(NC(=O)CSc2nncn2N)cc(OC)c1 [2-(4-amino-4H-1,2,4-triazol-3-ylthio)-N-(3,5-dimethoxyphenyl)acetamide]
GSK3-β; also recorded: GSK3-α	N#CCSc1nnc(-c2ccc(O)cc2)n1Cc1ccccc1 [2-(4-benzyl-5-(4-hydroxyphenyl)-4H-1,2,4-triazol-3-ylthio)acetonitrile]
AKT1	CCc1ccc(OCc2nnc(SCC(=O)O)n2Cc2ccccc2)cc1 [2-(4-benzyl-5-((4-ethylphenoxy)methyl)-4H-1,2,4-triazol-3-ylthio)acetic acid]
AURORA-A	N#CCSc1nnc(-c2cccnc2)n1Cc1ccccc1 [2-(4-benzyl-5-(pyridin-3-yl)-4H-1,2,4-triazol-3-ylthio)acetonitrile]
PKA and DAPK1	Cc1nnc(SC(C)C(=O)Nc2ccccc2)n1Cc1ccccc1 (stereo not shown) [2-(4-benzyl-5-methyl-4H-1,2,4-triazol-3-ylthio)-N-phenylpropanamide]

SMILES	Kinase
O=C(O)CSc1nnc(-c2cccnc2)n1Cc1ccco1 [2-(4-(furan-2-ylmethyl)-5-(pyridin-3-yl)-4H-1,2,4-triazol-3-ylthio)acetic acid]	DAPK1; also recorded: GSK3-β; also recorded: AURORA-A

Same assay, conditions: test compound 10 μM; active = activity greater than three-sigma from the mean of the predominately inactive population for that enzyme

protein kinase against which the compound exhibits inhibitory activity (Table 3)	SMILES
AURORA-A	Cn1c(CCc2nc3ccccc3[nH]2)nnc1SCCN1CCCCC1
AURORA-A	COc1ccccc1-n1c(SCCN2CCCCC2)nnc1-c1cccnc1
GSK3-α	c1cncc(-c2nnc(SCCN3CCCCC3)[nH]2)c1
AURORA-A	FC(F)(F)c1cccc(-c2nnc(SCC3CCCO3)[nH]2)c1 (stereo not shown)
CDK2-cyclinE	COc1ccc(-n2c(COc3ccc4ccccc4c3)nnc2SCCN2CCOCC2)cc1
AURORA-A	Cc1cc(OCc2nnc(SCCN3CCOCC3)n2Cc2ccccc2)ccc1Cl
GSK3-α	Oc1ccc(-c2nnc(SCCN3CCCCC3)n2Cc2ccco2)cc1
ROCK2	COc1ccccc1-n1c(SC(C)C(=O)Nc2cccc(NC(=O)c3ccco3)c2)nnc1-c1cccc(Cl)c1 (stereo not shown)
AURORA-A	OC(CSc1nnc(-c2cccnc2)[nH]1)C(F)(F)F (stereo not shown) [1,1,1-trifluoro-3-(5-(pyridin-3-yl)-4H-1,2,4-triazol-3-ylthio)propan-2-ol]
AURORA-A; also recorded: DYRK2	OC(CSc1nnc(-c2cccs2)[nH]1)C(F)(F)F (stereo not shown) [1,1,1-trifluoro-3-(5-(thiophen-2-yl)-4H-1,2,4-triazol-3-ylthio)propan-2-ol]
CDK1	COc1ccccc1-c1nnc(SCCSc2nnc(-c3ccccc3OC)n2-c2ccc(C)cc2)n1-c1ccc(C)cc1 [1,2-bis(5-(2-methoxyphenyl)-4-p-tolyl-4H-1,2,4-triazol-3-ylthio)ethane]
CHEK2	CCn1c(SCCSc2nnc(C3CCCCC3)n2CC)nnc1C1CCCCC1 [1,2-bis(5-cyclohexyl-4-ethyl-4H-1,2,4-triazol-3-ylthio)ethane]
PDGFRR-α	CCn1c(SCCN2CCCCC2)nnc1-c1ccc([N+](=O)[O-])cc1 [1-(2-(4-ethyl-5-(4-nitrophenyl)-4H-1,2,4-triazol-3-ylthio)ethyl)piperidine]
GSK3-α	O=C1c2ccccc2C(=O)N1CCSc1nnc(-c2ccc([N+](=O)[O-])cc2)[nH]1 [2-(2-(5-(4-nitrophenyl)-4H-1,2,4-triazol-3-ylthio)ethyl)isoindoline-1,3-dione]
AURORA-A	Oc1ccccc1-c1nnc(SCc2ccc(F)cc2)n1Cc1ccccc1 [2-(4-benzyl-5-(4-fluorobenzylthio)-4H-1,2,4-triazol-3-yl)phenol]

SMILES	protein kinase against which the compound exhibits inhibitory activity (Table 3)
COc1ccc(-c2nnc(SCCN3CCCCC3)[nH]2)cc1 [1-(2-(5-(4-methoxyphenyl)-4H-1,2,4-triazol-3-ylthio)ethyl)piperidine]	GSK3-α; also recorded: DYRK2; also recorded: GSK3-β
O=C1c2ccccc2C(=O)N1CCSc1nnc(-c2cccs2)[nH]1 [2-(2-(5-(thiophen-2-yl)-4H-1,2,4-triazol-3-ylthio)ethyl)isoindoline-1,3-dione]	AURORA-A; also recorded: GSK3-α; also recorded: DYRK2
O=C1c2ccccc2C(=O)N1CCSc1nnc(-c2ccccc2)[nH]1 [2-(2-(5-phenyl-4H-1,2,4-triazol-3-ylthio)ethyl)isoindoline-1,3-dione]	AURORA-A; also recorded: GSK3-β; also recorded: GSK3-α
